Laboratory results reported in the supplement of paper PMC10307832.

Legend:
Assay in all cases: relative viability (nuclei count vs DMSO), 5 days (fraction); higher = more cells survive
Darinaparsin + Foretinib = compound: C[As](C)SC[C@H](NC(=O)CC[C@H](N)C(=O)O)C(=O)NCC(=O)O [Darinaparsin] + COc1cc2c(Oc3ccc(NC(=O)C4(C(=O)Nc5ccc(F)cc5)CC4)cc3F)ccnc2cc1OCCCN1CCOCC1 [Foretinib] (partner 0.25 µM)
Summary of the method: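 Dosing by pin tool came one day after lung cancer cell lines were seeded in 1536-well plates, using either one drug or a fixed anchor-drug dose plus five library-drug doses (not always all listed) in √10 steps. After 5 days, nuclei were counted on 4× images. Relative viability is treated-well nuclei count divided by vehicle-well nuclei count, and values are medians of duplicate plates.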

AZ628 = compound: CC1=C(C=C(C=C1)NC(=O)C2=CC(=CC=C2)C(C)(C)C#N)NC3=CC4=C(C=C3)N=CN(C4=O)C [AZ628]
Summary of the method: (§1)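 Five library-drug doses spaced by √10 were pinned onto vehicle-anchored 1536-well plates of lung cancer cell lines that had been kept overnight at 37 °C. Cells went 5 days without medium change, then were fixed, permeabilised and Hoechst-stained together, imaged at 4× and counted by MetaXpress. Viability is the ratio of treated-well to vehicle-well nuclei, taken as a median over plates. Plates required control CV below 25% and at least one doubling.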

QS11 = compound: C1CC2=C(C1)C=C(C=C2)OC3=NC(=C4C(=N3)N(C=N4)CC5=CC=C(C=C5)C6=CC=CC=C6)N[C@@H](CC7=CC=CC=C7)CO [QS11]
Summary of the method: as §1

Darinaparsin = compound: C[As](C)SC[C@H](NC(=O)CC[C@H](N)C(=O)O)C(=O)NCC(=O)O [Darinaparsin]
Summary of the method: as §1

Cell Line | relative viability (Darinaparsin + Foretinib; first compound 0.08 µM) | relative viability (Darinaparsin + Foretinib; first compound 0.8 µM) | relative viability (Darinaparsin + Foretinib; first compound 2.53 µM) | relative viability (Darinaparsin + Foretinib; first compound 8 µM) | relative viability (AZ628; 0.08 µM) | relative viability (AZ628; 0.253 µM) | relative viability (AZ628; 0.8 µM) | relative viability (AZ628; 2.53 µM) | relative viability (AZ628; 8 µM) | relative viability (QS11; 0.253 µM) | relative viability (QS11; 0.8 µM) | relative viability (QS11; 2.53 µM) | relative viability (QS11; 8 µM) | relative viability (Darinaparsin; 0.08 µM) | relative viability (Darinaparsin; 0.8 µM) | relative viability (Darinaparsin; 2.53 µM) | relative viability (Darinaparsin; 8 µM) | relative viability (QS11; 0.08 µM)
ChaGo-K-1 | 0.962 | 0.97 | 0.873 | 1.13 | 1.14 | 0.965 | 0.984 | 1.06 | 1.01 | 1 | 1.11 | 1.09 | 1.14 | 1.07 | 1.01 | 0.949 | 1.03 | –
EBC-1 | 0.103 | 0.0925 | 0.123 | 0.0888 | 0.955 | 0.958 | 0.983 | 0.911 | 0.625 | 1.05 | 0.934 | 0.97 | 0.92 | 1.2 | 0.971 | 0.935 | 1.05 | 1.06
EKVX | 0.835 | 0.445 | 0.743 | 0.786 | 1.05 | 0.959 | 1 | 0.939 | 0.774 | 0.922 | 0.602 | 0.907 | 1.06 | 1.04 | 0.922 | 0.943 | 1.04 | 0.973
EMC-BAC-2 | 1.08 | 0.958 | 1.01 | 1.16 | 1.05 | 1 | 1.04 | 1.07 | 1.09 | 0.964 | 0.86 | 0.986 | 0.79 | 1.18 | 0.942 | 1.04 | 1.01 | 1.02
EPLC-272H | – | 0.658 | 0.619 | 0.814 | 0.955 | 0.848 | 0.971 | 0.953 | 0.628 | 1.02 | 0.949 | 0.995 | 0.908 | 0.8 | 0.841 | 0.902 | 0.992 | 0.698
H3255 | 0.781 | 0.863 | 0.913 | 0.854 | 0.996 | 0.908 | 0.975 | 1.02 | 0.693 | 1.01 | – | 1.01 | 1.08 | 1.02 | 1.01 | 0.896 | 1.01 | 0.947
HARA | 0.944 | 0.927 | 0.712 | 0.938 | 0.978 | 0.962 | 0.825 | 0.974 | 0.563 | 0.875 | – | 1.02 | 0.995 | 1.08 | 0.88 | 0.914 | 1.04 | 0.931
HCC-15 | 1.31 | 1 | 0.98 | 1.26 | 1.02 | 0.924 | 0.858 | 0.86 | 0.56 | 1.06 | 0.693 | 0.971 | 0.915 | 1.18 | 1 | 0.992 | 1.14 | 1.02
HCC-44 | – | – | – | – | 1.02 | 1.03 | 0.988 | 0.987 | 0.984 | 0.913 | 0.735 | 0.969 | 0.83 | 0.964 | 0.957 | 0.987 | 0.996 | 1.07
